Drawing on PubChem BioAssay (NCI), this text covers GI50 and TGI for 7 compounds.

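1) Cells in 96-well plates. 2) Compound, 48 h, 5 concentrations. 3) Linear interpolation between surrounding doses. 4) Unreached endpoint = highest concentration. GI50: concentration for 50% inhibition of growth. Definition used: TGI = concentration required for complete inhibition of growth.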

Some test systems named below: MDA-MB-231 breast; TK-10 renal; UACC-257 melanoma; OVCAR-3 ovarian; ACHN renal; UO-31 renal; M14 melanoma; BT-549 breast; SK-MEL-5 melanoma; HOP-92 NSCLC.
Assay in all cases: NCI-60 cell line screen, 48 h

For the compound `COC(=O)[C@]12CC[C@@H](C)[C@H](C)[C@@H]1C1=CC[C@@H]3[C@@]4(C)CC(=O)[C@H](O)[C@@]5(C)COC(=C45)C[C@@]3(C)[C@]1(C)CC2`, the GI50 was 20.1 µM in the experiment with MDA-MB-231 breast; 20.4 µM in the experiment on TK-10 renal; 19.2 µM in the experiment on UACC-257 melanoma; 19 µM in the experiment on OVCAR-3 ovarian; 18.3 µM in the experiment with ACHN renal; 16.9 µM in the experiment on UO-31 renal. Moreover, the GI50 was 18.5 µM with M14 melanoma, 17.3 µM in the experiment with BT-549 breast, 16.6 µM in the experiment on SK-MEL-5 melanoma and 14.3 µM with HOP-92 NSCLC. Further, the TGI in the experiment with MDA-MB-231 breast worked out at 42.4 µM; with TK-10 renal, 38 µM; in the experiment with UACC-257 melanoma, 33.4 µM; with OVCAR-3 ovarian, 34.8 µM; in the experiment with ACHN renal, 33.9 µM; with UO-31 renal it was 32.8 µM. Also, the TGI was found to be 36.9 µM in the experiment with M14 melanoma, 33.5 µM in the experiment on BT-549 breast, 30.2 µM with SK-MEL-5 melanoma and 29.1 µM in the experiment on HOP-92 NSCLC.
For `Nc1ccn(C=C=CCO)c(=O)n1`, the GI50 in the experiment with MDA-MB-231 breast, with TK-10 renal, in the experiment on UACC-257 melanoma, with OVCAR-3 ovarian, in the experiment on ACHN renal and in the experiment with UO-31 renal was above 1000 µM each time. For the same compound, the GI50 with M14 melanoma, with BT-549 breast, in the experiment with SK-MEL-5 melanoma and with HOP-92 NSCLC was above 1000 µM each time. In addition, the TGI in the experiment with MDA-MB-231 breast, in the experiment on TK-10 renal, in the experiment with UACC-257 melanoma, in the experiment on OVCAR-3 ovarian, in the experiment on ACHN renal and in the experiment on UO-31 renal was above 1000 µM each time. The TGI in the experiment on M14 melanoma, in the experiment with BT-549 breast, in the experiment on SK-MEL-5 melanoma and with HOP-92 NSCLC was above 1000 µM in each case.
Consider `O=C(c1cccs1)c1c(C(F)(F)F)n([O-])c2ccc(C(F)(F)F)cc2[n+]1=O`, for which the GI50 with MDA-MB-231 breast is 0.189 µM; in the experiment with TK-10 renal, 0.596 µM; in the experiment on UACC-257 melanoma, 1.59 µM; in the experiment with OVCAR-3 ovarian, 0.258 µM; in the experiment with ACHN renal it was 0.183 µM; in the experiment with UO-31 renal, 0.169 µM. Also, the GI50 in the experiment on M14 melanoma is 0.791 µM; in the experiment with BT-549 breast, 0.178 µM; in the experiment on SK-MEL-5 melanoma it was 0.483 µM; in the experiment with HOP-92 NSCLC, 0.152 µM. The TGI was determined as 0.357 µM with MDA-MB-231 breast; 1.31 µM in the experiment on TK-10 renal; 3.15 µM in the experiment on UACC-257 melanoma; 0.744 µM in the experiment with OVCAR-3 ovarian; 0.326 µM in the experiment with ACHN renal; 0.318 µM with UO-31 renal. Also, the TGI in the experiment on M14 melanoma is 1.87 µM; in the experiment on BT-549 breast, 0.34 µM; in the experiment with SK-MEL-5 melanoma, 0.914 µM; in the experiment with HOP-92 NSCLC, 0.321 µM.
In the case of `Cn1cc(-c2ccc(=O)n(Cc3cccc(-c4ncc(OCCN5CCOCC5)cn4)c3)n2)cn1`, the GI50 in the experiment on MDA-MB-231 breast was above 78 µM; in the experiment with TK-10 renal, 99 µM; in the experiment with UACC-257 melanoma, 48.7 µM; with OVCAR-3 ovarian, 58 µM; in the experiment on ACHN renal it was above 83.6 µM; in the experiment with UO-31 renal it was 64.8 µM. Besides, the GI50 with M14 melanoma was 84.2 µM; in the experiment with BT-549 breast, 32.1 µM; in the experiment on SK-MEL-5 melanoma, 19.6 µM; with HOP-92 NSCLC it was 34.9 µM. Moreover, the TGI in the experiment on MDA-MB-231 breast, with TK-10 renal, in the experiment on UACC-257 melanoma, in the experiment on OVCAR-3 ovarian, with ACHN renal and with UO-31 renal was above 100 µM throughout. Also, the TGI with M14 melanoma is above 100 µM; in the experiment on BT-549 breast it was above 100 µM; with SK-MEL-5 melanoma, 59.1 µM; with HOP-92 NSCLC, above 100 µM.
`CCCCCCCCCCCCCCCCCCNC(=O)[C@H]1CSC(c2ccc(OC)c(F)c2)N1` (stereo not given in full): the GI50 was 1.9 µM with MDA-MB-231 breast; 28.3 µM in the experiment with TK-10 renal; above 19.9 µM with UACC-257 melanoma; 7.84 µM in the experiment with OVCAR-3 ovarian; above 36.8 µM in the experiment with ACHN renal; above 32.8 µM in the experiment with UO-31 renal. Further, the GI50 with M14 melanoma was 1.43 µM; with BT-549 breast, 1.71 µM; in the experiment on SK-MEL-5 melanoma it was 2.92 µM; in the experiment on HOP-92 NSCLC it was 7.48 µM. Besides, the TGI with MDA-MB-231 breast was 5.16 µM; with TK-10 renal, above 57.7 µM; in the experiment on UACC-257 melanoma, above 44.1 µM; in the experiment on OVCAR-3 ovarian, above 50.2 µM; in the experiment on ACHN renal it was above 52.1 µM; in the experiment on UO-31 renal it was above 48.4 µM. Also, the TGI came out at 3.5 µM with M14 melanoma, 4.04 µM in the experiment on BT-549 breast, 10.3 µM with SK-MEL-5 melanoma and 28.9 µM in the experiment with HOP-92 NSCLC.
For `COc1ccccc1C(=O)/C=C/c1cc2cccc(OC)c2[nH]c1=O`, the GI50 was 0.151 µM with MDA-MB-231 breast; 1.14 µM in the experiment on TK-10 renal; 1.63 µM in the experiment with UACC-257 melanoma; 0.0343 µM with OVCAR-3 ovarian; 0.0557 µM in the experiment on ACHN renal; 0.115 µM with UO-31 renal. Moreover, the GI50 in the experiment with M14 melanoma was below 0.0131 µM; in the experiment on BT-549 breast, 0.112 µM; in the experiment on SK-MEL-5 melanoma it was 0.0374 µM; in the experiment with HOP-92 NSCLC it was 0.115 µM. The TGI was 1.79 µM in the experiment on MDA-MB-231 breast; 11.5 µM with TK-10 renal; 9.26 µM in the experiment on UACC-257 melanoma; 0.6 µM in the experiment on OVCAR-3 ovarian; 2.15 µM in the experiment with ACHN renal; 1.68 µM in the experiment on UO-31 renal. For the same compound, the TGI in the experiment on M14 melanoma was 0.3 µM; in the experiment on BT-549 breast it was 1.37 µM; in the experiment on SK-MEL-5 melanoma it was 0.843 µM; in the experiment on HOP-92 NSCLC it was 2.07 µM.
Regarding `O=C1c2ccccc2-c2c1c1ccccc1c(=O)n2CCO`, the TGI in the experiment with MDA-MB-231 breast is above 100 µM; in the experiment on TK-10 renal, above 100 µM; with UACC-257 melanoma, above 100 µM; with OVCAR-3 ovarian it was above 100 µM; with ACHN renal it was 10.4 µM; in the experiment on UO-31 renal, above 81 µM. Besides, the TGI in the experiment with M14 melanoma was above 100 µM; in the experiment with BT-549 breast, above 100 µM; with SK-MEL-5 melanoma, 33.1 µM; in the experiment with HOP-92 NSCLC, above 71.6 µM.
